Like-named read-outs stand apart in the source and are kept apart here.

Assay [1] has as its system iCell cardiomyocytes (human iPSC-derived cardiomyocytes). The experiment in a line: High-content imaging of cytotoxicity and mitochondrial integrity in iPSC-CMs. In kind it is cell-based. As to conditions: Homo sapiens, Cardiomyocyte, cardiomyocytes (cm). Here is the method:
Details on cardiomyocyte cell culture are described in detail elsewhere ([Grimm et al. 2015b]; [Sirenko et al. 2013a]). Briefly, tissue-culture treated 384 well plates were gelatinized with 25μL per well of 0.1% (w/v) gelatin in water for 2 h at 37°C and 5% CO2 . Individual vials of cells were thawed for 4 min in a water bath maintained at 37°C. Thawed cells were resuspended in 10ml plating medium containing 1:500 (vol/vol) penicillin/streptomycin solution at room temperature (RT). Live cell counts for each cell suspension were determined by trypan blue staining and cells were further diluted to provide final cell densities of 2×10^5 viable cells/ml. Thus, 5,000 cells suspended in 25μL media were transferred per well after the gelatin solution had been discarded. Cell culture plates were rested for 30 min at RT before they were incubated for 48 h at 37°C and 5% CO2 . Then, a media exchange with 30μL of fresh maintenance medium containing 1:500 (vol/vol) penicillin/streptomycin solution was performed, and cell media were subsequently changed every 48 h for 12 d. On the experiment day, the medium was completely exchanged with either 25μL (for Ca^2+ flux assay) or 40μL (for imaging) of fresh medium.
Cytotoxicity and effects on mitochondrial integrity of various PCBs and PCB metabolites in induced pluripotent stem cell-CMs (iPSC-CMs) were assessed using high-content cellular imaging in ImageXpress® Micro Confocal (Molecular Devices) as detailed in ([Grimm et al. 2015b]). Cells in 40μL maintenance media were treated with 10μL of 5× chemical solutions to provide test chemicals at final assay concentrations ranging from 0.01 to 100μM . […] Next, sample wells were treated with 50μL equilibrated 2× concentrated staining solution (maintenance medium containing Hoechst 33342, 4μg/mL and MitoTracker™ Orange, 0.4μM ). Microplates were then incubated for 15 min at 37°C and 5% CO2 before cells were washed twice with 30μL maintenance medium. All media were aspirated and discarded, and cells were fixed with […] of a 3.7% formaldehyde solution for 15 min at 37°C and 5% […] . Fixed cells were washed 3× with 25μL PBS before image acquisition using the DAPI (Hoechst 33342) and Cy3 (MitoTracker™ Orange) filters at 10× magnification on the ImageXpress® Micro Confocal high-content confocal microscope (Molecular Devices). The multiwavelength cell scoring applications module in MetaXpress® was used to analyze acquired images.
(§1) Phenotypic responses were quantitatively assessed using concentration–response modeling as detailed elsewhere ([Sirenko et al. 2017]). Briefly, phenotypic readouts were normalized to vehicle controls and fit to a four-parameter logistic model in R studio software (version 3.1.1; R Development Core Team). Following EPA guidance on dose–response modeling, a cutoff of one standard deviation across means of vehicle control (i.e., 0.5% vol/vol DMSO in cell culture media) wells was applied to determine the point-of-departure (POD) values ([U.S. EPA 2012]). In the absence of a concentration–response, the highest tested concentration (i.e., 100μM ) was assigned as “no observable adverse effect level.” The concentration–response assessment R script, as well as templates for vehicle and concentration–response data, are available as a supplement to Sirenko et al. ([2017]). The ability of physicochemical properties to predict differences in PODs were evaluated by multiregression and mixed-effects modeling using R.

The subject of assay [2] is HUVECs. The assay is described as follows: High-content imaging cytotoxicity in HUVECs, 24 h. The assay is classed as cell-based, human. The note with it: Homo sapiens, HUVEC, 24 h, HUVEC, 24 hr. The method, then:
Similar to the cultivation of iCell®-endothelial cells, HUVEC maintenance and experimentation are detailed elsewhere ([Iwata et al. 2017]). Briefly, HUVECs were thawed, seeded, and grown in T75 tissue culture flasks in Medium 199 with EGM™-2 BulletKits™. HUVECs were incubated at regular cell culture conditions, 37°C and 5% CO2 , and passaged every 2–3 d using TrypLE™ Express. To ensure adequate endothelial function, experiments were performed with cells between passages 1 and 5.
Cytotoxicity was assessed in parallel experiments. For iCell®-endothelial cells, 384-well plates were coated with a 30μg/mL fibronectin solution ( 10μL/well ) and incubated for 2 h at RT. iCell®-endothelial cells were dissociated with TrypLE™ Express and prepared into a solution to achieve 750 cells per well and 50μL of total volume. The fibronectin solution was removed from the 384-well plate, and cells were plated. For HUVECs, similar dissociation and the same cell density were used for plating with the exclusion of the fibronectin solution. Cells were incubated at 37°C and 5% CO2 until a monolayer was formed, typically 3–5 d. 2×PCB plates were created with the requisite maintenance medium. Before treatment, the medium in the wells was exchanged to 25μL/well of fresh maintenance medium. 2×PCB chemical solutions ( […] ) were added. After 24 h incubation at 37°C and 5% CO2 , cells were stained with Hoechst 33342, MitoTracker™ Orange, and calcein AM for 20 min before replacing the staining media with FluoroBright DMEM. Cell culture plates were imaged using the ImageXpress® Micro Confocal high-content imaging system (Molecular Devices). Images were acquired at 10× magnification with DAPI, TRITC, or FITC filter (Hoechst 33342, MitoTracker™, or calcein AM, respectively). The multiwavelength cell scoring applications module in MetaXpress™ (Molecular Devices) was used to analyze the images.
as §1

For `Oc1ccc(O)c(-c2ccc(Cl)cc2)c1` [2',5'-diOH-PCB 3, 4-Chloro-2′,5′-dihydroxybiphenyl], the minimal effective concentration in assay [1] (1.5 h, cam, 90 min, read-out: POD cm.cam.90min) was determined as 32.4 µM; in assay [1] (1.5 h, mii, 90 min, read-out: POD cm.mii.90min), 7.9 µM; in assay [1] (1.5 h, mito, 90 min, read-out: POD cm.mito.90min), 12.7 µM; in assay [1] (1.5 h, tc, 90 min, read-out: POD cm.tc.90min), 33.4 µM; in assay [1] (24 h, cam, 24 hrs, read-out: POD cm.cam.24hrs) it was 1.84 µM; in assay [1] (24 h, mii, 24 hrs, read-out: POD cm.mii.24hrs), 2.28 µM. Further, the minimal effective concentration in assay [1] (24 h, mito, 24 hrs, read-out: POD cm.mito.24hrs) stood at 0.97 µM; in assay [1] (24 h, tc, 24 hrs, read-out: POD cm.tc.24hrs) it was 1.88 µM; in assay [2] (cyto, read-out: POD huvec.cyto.24hr), 0.12 µM; in assay [2] (mito, read-out: POD huvec.mito.24hr) it was 0.13 µM; in assay [2] (mitoint, read-out: POD huvec.mitoint.24hr) it was 3.51 µM; in assay [2] (nma, read-out: POD huvec.nma.24hr) it was 8.87 µM. In assay [2] (tc, read-out: POD huvec.tc.24hr), the minimal effective concentration came out at 0.12 µM.

The record behind these values is publication PMC7377239, “Cardiovascular Effects of Polychlorinated Biphenyls and Their Major Metabolites” (Environmental Health Perspectives, 2020).
